Patent US12156873B2, “Composition for treating ocular hyperemia and a method for treating ocular hyperemia with the same” (ADS Therapeutics LLC, priority 2018, dated 2024)

How the values were obtained:
Format in all cases: in vivo
[1] = system: Ocular hyperemia patients; assay: Ocular hyperemia patients treated topically with emulsion formulations BID for 2 weeks, hyperemia graded from eye pictures
Protocol: Ocular hyperemia patients with hyperemia grade >2 (0-4, five-point scale; 0 being clear of hyperemia and 4 being of severe hyperemia) are selected for treatment with 4 emulsion formulations. Each group has about 20 patients. The patients are assigned to the groups in a way to make sure the base line average grade is similar among the groups. The formulations are dosed twice a day (BID) for 2 weeks and the patients are further followed up for 4 weeks. The formulations are administered topically by a physician on the day of visits or by the patient between visits. Patients are evaluated on day 1, week 1, and 2, before and after dosing. After the stop of dosing, patients are further followed up at 4 and 6 weeks.
The effect on ocular hyperemia is evaluated by taking pictures of the eye. […] The tolerability of the formulations is also evaluated with standard eye examinations commonly used for such assessment. The efficacy and tolerability data are analyzed by independent statisticians.

[2] = system: pterygium patients; assay: Phase 2a clinical trial stage 2: 0.2% nintedanib eye drop vs vehicle, 28 days TID, pterygium vascularity graded from photographs
Protocol: (§1) Nintedanib was formulated into an eye drop and tested in pterygium patients in a Phase 2a clinical trial to evaluate the safety and efficacy of nintedanib. The key efficacy endpoint is effects on pterygium vascularity.
In stage 2, the safety, tolerability and efficacy of the 0.2% formulation were evaluated in a randomized, double-masked, vehicle-controlled, parallel study with 28 days TID repeat ocular dosing of vehicle and 0.2% nintedanib. The patients were further followed up by 20 weeks of post-dosing observation. Ophthalmic and physical examinations were performed at screening, Day 1 and Week 2, 4, 8, 16, and 24. External photograph of the pterygium eye was taken using a digital camera and the pterygium vascularity was graded from these images at an independent image reading center. The primary objective is to evaluate ocular and systemic safety of nintedanib in pterygium patients that have moderate to severe pterygium vascularity. The secondary objective is to assess whether the formulation is efficacious in reducing pterygium vascularity.
A total of 50 patients were enrolled and randomized in a 1:1 treatment allocation to receive either nintedanib or vehicle. The final analysis was performed after study completion. The O'Brien-Fleming group-sequential method was used for a multiple-comparison adjustment of p-values for efficacy. For the final analysis, a 2-sided test with p-value ≤0.048 is considered statistically significant for all between and within treatment comparisons.

[3] = system: pterygium patients; assay: Phase 2a clinical trial stage 1: single dose escalating safety, tolerability and pharmacokinetics study; conditions: single dose 0.02%, 0.05%, 0.2% eye drop
Protocol: as §1
The clinic trial was conducted in two stages. In stage 1, the safety, tolerability and pharmacokinetics were evaluated in a single dose escalating study. Three dose cohorts with 8 patients in each were evaluated. Cohort 1 began at the lowest concentration of 0.02% nintedanib (weight percent based on the total weight of the eye drop), followed by an increasing dose to 0.05% for Cohort 2 and then to 0.2% for Cohort 3.

[4] = Day 1 before dosing (baseline), 0-4 five-point scale, BID topical
[5] = Wee 4 (follow-up, 2 weeks after stop of dosing), 0-4 scale
[6] = Week 6 (follow-up, 4 weeks after stop of dosing), 0-4 scale

## Brc1c(NC2=NCCN2)ccc2nccnc12 [Brimonidine, (5-Bromoquinoxalin-6-yl)-(4,5-dihydro-1H-imidazol-2-yl)-amine]
[1]; Day 1 2 h post, 0-4 scale
  Average Hyperemia Grade: 2
[1]; Day 1 6 h post, 0-4 scale
  Average Hyperemia Grade: 3
[1]; [4]
  Average Hyperemia Grade: 3
[1]; [5]
  Average Hyperemia Grade: 3
[1]; Week 1 2 h post, 0-4 scale
  Average Hyperemia Grade: 2
[1]; Week 1 before, 0-4 scale
  Average Hyperemia Grade: 3
[1]; Week 2 2 h post, 0-4 scale
  Average Hyperemia Grade: 2
[1]; Week 2 before, 0-4 scale
  Average Hyperemia Grade: 3
[1]; [6]
  Average Hyperemia Grade: 3
[1]; after dosing
  duration of effect on hyperemia grade at each of the visits: 2 to 4 h
[1]; day 1, week 1 and 2
  hyperemia grade after dosing: reduced immediately after dosing
[1]; week 4 and 6
  hyperemia grade after stop of treatments: the same as the baseline

## COC(=O)c1ccc2c(c1)NC(=O)/C2=C(\Nc1ccc(N(C)C(=O)CN2CCN(C)CC2)cc1)c1ccccc1 [Nintedanib, (Z)-3-(1-(4-(N-((4-methyl-piperazin-1-yl)-methylcarbonyl)-N-methyl-amino)-phenylamino)-1-phenyl-methylene]-6-methoxycarbonyl-2-indolinone]
[1]; Day 1 2 h post, 0-4 scale
  Average Hyperemia Grade: 3
[1]; Day 1 6 h post, 0-4 scale
  Average Hyperemia Grade: 3
[1]; [4]
  Average Hyperemia Grade: 3
[1]; [5]
  Average Hyperemia Grade: 2.5
[1]; Week 1 2 h post, 0-4 scale
  Average Hyperemia Grade: 2
[1]; Week 1 before, 0-4 scale
  Average Hyperemia Grade: 2
[1]; Week 2 2 h post, 0-4 scale
  Average Hyperemia Grade: 2
[1]; Week 2 before, 0-4 scale
  Average Hyperemia Grade: 2
[1]; [6]
  Average Hyperemia Grade: 3
[1]; after 2 weeks BID dosing
  time the grade reduction remained significant after the stop of dosing: 2 weeks
[1]; day 1, comparing to the baseline
  hyperemia grade, drug effect on day 1: did not change significantly
[1]; week 1 and 2
  hyperemia grade reduction from baseline: about 1 grade
[2]; 0.2% eye drop, 28 days TID
  safety and tolerability: excellent with no serious adverse events
[2]; Day 1 (baseline)
  Mean grade Difference, nintedanib vs vehicle (pterygium vascularity): −0.15
[2]; Week 2
  Mean change from baseline Difference, nintedanib vs vehicle (pterygium vascularity): −0.72
  Mean grade Difference, nintedanib vs vehicle (pterygium vascularity): −0.87
[2]; Week 4 (end of dosing)
  Mean change from baseline Difference, nintedanib vs vehicle (pterygium vascularity): −0.76
  Mean grade Difference, nintedanib vs vehicle (pterygium vascularity): −0.91
[2]; Week 8
  Mean change from baseline Difference, nintedanib vs vehicle (pterygium vascularity): −0.41
  Mean grade Difference, nintedanib vs vehicle (pterygium vascularity): −0.53
[2]; Week 16
  Mean change from baseline Difference, nintedanib vs vehicle (pterygium vascularity): −0.59
  Mean grade Difference, nintedanib vs vehicle (pterygium vascularity): −0.7
[2]; Week 24 (end of study)
  Mean change from baseline Difference, nintedanib vs vehicle (pterygium vascularity): −0.17
  Mean grade Difference, nintedanib vs vehicle (pterygium vascularity): −0.31
[2]; after 28 days TID dosing
  persistence of effect on pterygium vascularity: maintained through Week 16
[2]; by Week 2
  effect on pterygium vascularity: highly significant
[3]
  safety: No safety issues were found at all doses
